According to patent US10100039B2, “Allisartan isoproxil polymorph, its preparation method and pharmaceutical” (SHENZHEN SALUBRIS PHARMACEUTICALS CO., LTD, priority 2014, dated 2018):
Each block holds one compound with its values, some of them ahead of it.

Legend:
Format in all cases: physicochemical
[1] = Bulk density by cylinder knocking method
[2] = Repose angle by fixed funnel method (flowability)
Source text: Repeated the method of patent CN200710094131.0 to obtain fine loose allisartan isoproxil powder (referred to as literature crystal), measured the response angle by fixed funnel method.

[3] = Stability study of influence factors (high temperature, high humidity, light); details: for Stability under influence factors (conclusion in words): photostability, high humidity and high temperature study
Experimental: Stability study on the mentioned polymorph in Example 1 was performed in high temperature, high humidity and light conditions to study the influence factors.

[4] = Observation of electrostatic phenomenon of the crystal; details: compared with the crystal disclosed
Experimental: Added 33 ml of isopropanol and 66 ml of n-heptane in the remainder (allisartan isoproxil crude), heated to 76° C. and stirred for 2 h, then cooled to 60° C. and stirred for 1 h. Cooled the system slowly to 0° C., continued to stir for 3 h. Filtered, and washed the filter cake with n-heptane.

[5] = high humidity test 25° C., RH 92.5%, day 0
[6] = high humidity test 25° C., RH 92.5%, day 5
[7] = high humidity test 25° C., RH 92.5%, day 10
[8] = high temperature test 60° C., day 0
[9] = high temperature test 60° C., day 5
[10] = high temperature test 60° C., day 10
[11] = photostability test 4500lx ± 500lx, day 0
[12] = photostability test 4500lx ± 500lx, day 5
[13] = photostability test 4500lx ± 500lx, day 10

- Bulk density [1]: 0.51 g/mL
- Repose angle [2]: 48-53 °
Compound: CCCCc1nc(Cl)c(C(=O)OCOC(=O)OC(C)C)n1Cc1ccc(-c2ccccc2-c2nnn[nH]2)cc1 [Literature crystal, 2-butyl-4-chloro-1-[2′-(1H-tetrazol-5-yl)-1, 1′-biphenyl-methyl]-imidazole-5-carboxylic acid, 1-[(isopropoxy)-carbonyloxy]methyl ester, reference compound]

- Stability under influence factors (conclusion in words) [3]: same result with that of Example 1
- Bulk density [1]: 0.77 g/mL
- Repose angle [2]: 33-35 °
Compound: CCCCc1nc(Cl)c(C(=O)OCOC(=O)OC(C)C)n1Cc1ccc(-c2ccccc2-c2nnn[nH]2)cc1 [Example 3, 2-butyl-4-chloro-1-[2′-(1H-tetrazol-5-yl)-1, 1′-biphenyl-methyl]-imidazole-5-carboxylic acid, 1-[(isopropoxy)-carbonyloxy]methyl ester]

- Stability under influence factors (conclusion in words) [3]: same result with that of Example 1
- Bulk density [1]: 0.73 g/mL
- Repose angle [2]: 35-37 °
Compound: CCCCc1nc(Cl)c(C(=O)OCOC(=O)OC(C)C)n1Cc1ccc(-c2ccccc2-c2nnn[nH]2)cc1 [Example 2, 2-butyl-4-chloro-1-[2′-(1H-tetrazol-5-yl)-1, 1′-biphenyl-methyl]-imidazole-5-carboxylic acid, 1-[(isopropoxy)-carbonyloxy]methyl ester]

- Stability under influence factors (conclusion in words) [3]: same result with that of Example 1
- Bulk density [1]: 0.77 g/mL
- Repose angle [2]: 35-38 °
Compound: CCCCc1nc(Cl)c(C(=O)OCOC(=O)OC(C)C)n1Cc1ccc(-c2ccccc2-c2nnn[nH]2)cc1 [Example 4, 2-butyl-4-chloro-1-[2′-(1H-tetrazol-5-yl)-1, 1′-biphenyl-methyl]-imidazole-5-carboxylic acid, 1-[(isopropoxy)-carbonyloxy]methyl ester]

- Sum of impurities [3, 5]: 0.39%
- Weight gained [3, 5]: 0%
- Sum of impurities [3, 6]: 0.37%
- Weight gained [3, 6]: 0%
- Sum of impurities [3, 7]: 0.38%
- Weight gained [3, 7]: 0%
- Sum of impurities [3, 8]: 0.39%
- Weight gained [3, 8]: 0%
- Sum of impurities [3, 9]: 0.39%
- Weight gained [3, 9]: 0%
- Sum of impurities [3, 10]: 0.39%
- Weight gained [3, 10]: 0%
- Sum of impurities [3, 11]: 0.39%
- Weight gained [3, 11]: 0%
- Sum of impurities [3, 12]: 0.37%
- Weight gained [3, 12]: 0%
- Sum of impurities [3, 13]: 0.38%
- Weight gained [3, 13]: 0%
- Stability under influence factors (conclusion in words) [3]: remained stable
- Bulk density [1]: 0.75 g/mL
- Repose angle [2]: 34-36 °
Compound: CCCCc1nc(Cl)c(C(=O)OCOC(=O)OC(C)C)n1Cc1ccc(-c2ccccc2-c2nnn[nH]2)cc1 [Example 1, 2-butyl-4-chloro-1-[2′-(1H-tetrazol-5-yl)-1, 1′-biphenyl-methyl]-imidazole-5-carboxylic acid, 1-[(isopropoxy)-carbonyloxy]methyl ester]
- Electrostatic phenomenon [4]: does not have obvious electrostatic phenomenon
